PMC7504721, “Targeting the Initiator Protease of the Classical Pathway of Complement Using Fragment-Based Drug Discovery” (Molecules, 2020)

Legend:
C1r-CUB1 = biological target: T1, C1r-CUB1 (Homo sapiens, UniProt P00736); assay: SPR domain mapping, C1r-CUB1 surface; assay type: binding; conditions: duplicate
T1 construct: The C1r-CUB1 construct corresponds to C1r residues 18–141; made in house; host or cells: E. coli BL21 (DE3)
T1 sequence (P00736 18-141): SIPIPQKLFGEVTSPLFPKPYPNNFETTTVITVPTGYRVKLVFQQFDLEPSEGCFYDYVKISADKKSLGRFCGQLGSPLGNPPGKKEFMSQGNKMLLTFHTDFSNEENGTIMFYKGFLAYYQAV
Source text: (§1) Figure 5 Selectivity and mechanistic analysis of CMP-1611 and CMP-1696. (A) Chemical structure of CMP-1611. (B) Chemical structure of CMP-1696. (C) Dose-dependent inhibition by CMP-1611 and CMP-1696 in a classical pathway-specific ELISA. Data were fit with GraphPad Prism using non-linear regression with a log(inhibitor) vs. response model. […] The CMP-778 inhibitory response could not be fit to a dose-response inhibition model. (D) Complement pathway selectivity of CMP-1611 and CMP-1696. Compounds were assessed for their ability to inhibit activation of complement via the lectin and alternative pathways using single doses of 500 μM compound in triplicate. To ensure only lectin pathway activation, 2% (v/v) C1q-depleted serum (CompTech) was used and mannan was used as the activator. To match serum sources and amounts for this assay, the classical pathway assays were repeated here using serum from CompTech at 2% (v/v) final concentration. Alternative pathway activation assays were performed using 20% (v/v) serum (CompTech), alternative pathway buffers, and C3b detection (see Methods and Materials for details). […] (E) C1r, C1r-CUB1, and C1r-CCP2-SP, were immobilized on an SPR sensor chip and binding responses for 500 μM CMP-1611 and CMP-1696 or 10 μM Futhan were each injected in duplicate over all surfaces. Binding responses were corrected for the molecular weight of each analyte and the immobilization level and molecular weight of each surface ligand. Measures of statistical significance in (D) were obtained by comparison of vehicle control using an unpaired t-test (* p < 0.05). To assess selectivity of CMP-1611 and CMP-1696, we performed pathway-specific ELISA-based inhibition assays. […] However, CMP-1696, but not CMP-1611, blocked lectin pathway activation at a similar level as it did the classical pathway (Figure 5D). To further investigate the divergent selectivity profiles of CMP-1611 and CMP-1696, we first sought to clarify the binding site on C1r for each compound. […] We then injected each compound simultaneously over the three surfaces at 500 μM and measured binding responses. […]

C1r-CCP2-SP = biological target: T2, C1r-CCP2-SP (Homo sapiens, UniProt P00736); assay: SPR domain mapping, C1r-CCP2-SP surface; assay type: binding; conditions: duplicate
T2 sequence (P00736 374-463 limits assumed): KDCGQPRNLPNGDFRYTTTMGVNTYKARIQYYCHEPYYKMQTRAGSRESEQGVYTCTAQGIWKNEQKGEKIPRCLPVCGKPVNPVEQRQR
T2 sequence (P00736 464-705 limits assumed): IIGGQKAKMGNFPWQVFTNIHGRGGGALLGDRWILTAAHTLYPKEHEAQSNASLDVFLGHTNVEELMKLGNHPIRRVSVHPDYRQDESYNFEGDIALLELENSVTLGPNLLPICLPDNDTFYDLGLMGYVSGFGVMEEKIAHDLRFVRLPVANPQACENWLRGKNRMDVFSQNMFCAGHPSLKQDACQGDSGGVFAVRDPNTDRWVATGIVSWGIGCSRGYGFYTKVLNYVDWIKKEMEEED
Source text: as §1

Row | relative SPR binding response, C1r-CUB1 (C1r-CUB1; 500 µM compound) | relative SPR binding response, C1r-CCP2-SP (C1r-CCP2-SP; 500 µM compound) | relative SPR binding response, C1r-CUB1 (C1r-CUB1; 10 µM Futhan) | relative SPR binding response, C1r-CCP2-SP (C1r-CCP2-SP; 10 µM Futhan) | SMILES
1 | bound weakly | bound weakly | – | – | CN(C)c1cc(N2CCCC(N)C2)ncn1 (stereo not drawn) [CMP-1611]
2 | low binding | high binding | – | – | COCc1nc(-c2ccc(OC3CNC3)cc2)no1 [CMP-1696]
3 | – | – | very little binding response | bound C1r and C1r-CCP2-SP similarly | N=C(N)c1ccc2cc(OC(=O)c3ccc(N=C(N)N)cc3)ccc2c1 [Futhan, reference compound]
